Here are results for 2 compounds from US20090317376A1, “Compositions And Methods For Lipo Modeling” (Georgetown University MEDICAL SCHOOL, priority 2005, published 2009).

In one test the test system is abdominal fat. The test can be described thus: Stress and high-fat diet induced obesity model. The test is classed as in vivo, mice. The protocol:
In environmentally-induced obese mice, normal NWT C57BL/6 and SV129 mice are subjected to low levels of chronic stress (cold stress, 1 cm ice-water bath at the base of the cage for 1 hour, a technique that increases NPY and stimulates vascular growth) and fed a high-fat, “comfort food” diet consisting of lard and sucrose (standard chow diet/high fat diet: fat: 12%/45%, carbohydrates: 60%/35%, and protein: 28%/20%). These mice are treated with NPY, Y2R agonists and Y2R antagonists. The growth of fat deposits is monitored by MRI and vascularization is confirmed by immunohistochemistry (IHC). ELISA, IHC, and quantitative real-time RT-PCR are used to determine how diet and stress affect NPY and Y2R levels. Core body temperature and food intake are monitored to determine changes in metabolism (FIG. 15). Glucose tolerance tests and lipid profiles of the mice are used to determine whether altering adipose mass results in a change in insulin, glucose, FFA, TG or cholesterol in the plasma (FIG. 18).
Magnetic Resonance Imaging (MRI): A Brukker 7-Tesla small-animal magnetic resonance imager coil is used to visualize and noninvasively quantitate various fat depots. A 3-dimensional (3D) T2-weighted (T2W) imaging protocol optimized for high contrast fat-imaging is implemented. […] Quantification of the total body fat as well as separate specific fat depots is calculated using thresholding and voxel count plugins from NIH image J software. VolumeJ is used to render, in a 3D image, the various fat depots. The animal management system that is used in conjunction with the MRI is equipped to take core, skin, ambient and water blanket temperature measurements that are monitored during the imaging. The water blanket is used to regulate core temperature of the rodent during anesthesia. […]
High fat diet: Mice are given either a Standard Chow (SC) diet: 28% protein, 60% carbohydrate, 12% fat (4 kcal/gm) or a High Fat (HF) diet: 20% protein, 35% carbohydrate, 45% fat (4.7 kcal/gm) from Research Diets for 14-28 days. Food consumption is measured daily from the various treatment groups and pairfeeding ensures that changes seen in weight and visceral fat are due to the peripheral effects of the treatment. […]

A further test relates to endothelial cells. The test can be described thus: Endothelial cell proliferation (mitogenic assay). The test is classed as cell-based, human. The text has this:
To mimic stress-released NPY in vitro, conditioned media from, or coculture with, neuroblastoma SKNBE cells (a model of sympathetic neurons which release 0.1 pM NPY) is used to treat endothelial cells and 3T3-L1 preadipocytes. Both cell lines express all NPYRs but lack NPY (confirmed by RT-PCR and IHC, FIG. […] 6). […] When 3T3-L1 preadipocytes are cocultured with HMVEC, there is no significant mitogenic response between treated and untreated cells.
Co-culture: For mitogenic assay and expression studies, co-culture is performed in a Costar Transwell system. Cells are plated on the 6-well plates and the inserts with 0.4 μm Polyester membranes. After they reach 30% confluence, the inserts are placed into plates with other cells. Co-culture of neuroblastomas/SCG neurons with aECs are carried out in EC media and with preadipocytes—in preadipocyte growth media. […] After 48 h, the cells are counted with a coulter counter. […]
Mitogenic assays: 3T3-L1 pre-adipocytes are allowed to grow to 30% confluency before serum-starving the cells. […] Proliferation is determined by cell counting using a coulter counter (Beckman Coulter, Miami, Fla.). […] After 24 h, cells are harvested in a 96-well harvester (Tomtec) and counted in a Betaplate Liquid Scintillation Counter (Wallac).
1. […] After 24 h, cells were harvested in a 96-well harvester (Tomtec) and counted in a Betaplate Liquid Scintillation Counter (Wallac). […]

Setting [1] is: intra-fat injection, HF and stress.
Where [2] appears, read: local Y2R antagonist, stress and HF-diet.
[3] abbreviates: local intra-fat injections, within 2-weeks, HF + stress.

“Also recorded” adds a separate entry of the source.

On to `N=C(N)NCCC[C@H](NC(=O)CC1(CC(=O)N2CCN(C3c4ccccc4NC(=O)c4ccccc43)CC2)CCCC1)C(=O)NCCn1c(=O)n(-c2ccccc2)n(-c2ccccc2)c1=O` (stereo partly shown) [BIIE0246], for which the “stress-amplification of visceral fat (MRI fat volume fraction)” value with abdominal fat (four weeks daily 1-hr cold stress + high fat diet) is given as “reversed”. Also, in the test on abdominal fat (intra-fat administration), the “stress-induced insulin-to-NPY switch and metabolic abnormalities” value is listed as “fully prevented”. Besides, in the test on abdominal fat (setting [1]), the fat mass result is “reduced fat mass” and the “imbalance of NPY-to-epinephrine plasma levels” value is recorded as “reversed this imbalance”. In the test on abdominal fat (intra-fat injections), the “stress+HF-induced hyperlipidemia” value is reported as “did not alter”. Moreover, in the test with abdominal fat (intra-fat injections, stress+HF), the “UCP-1/2 expression in WAT” value is “did not alter”. Besides, in the test with abdominal fat (setting [2]), the “adipocyte apoptosis (TUNEL)” value was “increased their apoptosis” and the “adipocyte proliferation (Ki67+ staining)” value is listed as “inhibited adipocyte proliferation”. Besides, in the test on abdominal fat (setting [3]), the insulin levels entry is reported as “increased insulin levels”, the metabolic profile entry is “improved metabolic profile”, the “plasma NPY levels” value was “normalized” and the plasma adipokine levels result is recorded as “normalized”. In addition, the “tissue steatosis (liver and skeletal muscle)” value in the test with abdominal fat (local intra-fat injections, HF + stress, listed as Y2R antagonist) was “inhibited tissue steatosis; also recorded: reduced liver and skeletal muscle steatosis”. Moreover, the visceral fat entry in the test on abdominal fat (nonstressed WT mice, FIG. 17) was “significant reduction in visceral fat”. The “lowered plasma osteocalcin levels (bone loss response)” value in the test on abdominal fat (stress combined with HF, intra-fat delivery) is given as “completely normalized”. For the same compound, the “stress-induced WAT cellularity, proliferation of small adipocytes” value in the test with abdominal fat (stress in HF-fed mice) was “reversed”. Moreover, the “visceral fat volume fraction” value in the test with abdominal fat (stressed C57BL/6 WT mice, FIG. 17) is given as “reversed”. Moreover, the other fat depots result in the test on abdominal fat (stressed HF-fed mice, 2-weeks) is on record as “without significantly changing other depots”. In addition, the “reduction of abdominal (subcutaneous and visceral) depot” value in the test on abdominal fat (stressed HF-fed mice, pellet 10 μg/14 days or daily injections 1 μM, 2-weeks) was determined as 40%. In addition, in the test with abdominal fat (stressed SV129 mice on high-fat diet, Y2R antagonist slow-release pellets, FIG. 16), the “visceral fat volume fraction” value is given as “reduced to a level that is comparable to nonstressed SV129 mice given a placebo pellet”. Besides, the “block of NPY- and neuroblastoma-conditioned media-stimulated endothelial cell proliferation” value in the test with endothelial cells (BIIE0246 1 μM) was “blocked”.
As to neuropeptide Y [NPY], in the test on endothelial cells (NPY treatment of endothelial cells), the endothelial cell proliferation entry is “stimulated”.
